# Measurements taken from PubChem BioAssay (NCI).
#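 In this assay, cells in 96-well plates receive the compound at five concentrations for 48 hours. Endpoints are linearly interpolated between the surrounding concentrations. TGI denotes the concentration required for complete inhibition of growth.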
# Assays:
# Test in all cases: NCI anticancer screen, dose series, 48 h
# NCI-H226 lung = system: NCI-H226 lung
# OVCAR-8 ovarian = system: OVCAR-8 ovarian
# HS 578T breast = system: HS 578T breast
# T-47D breast = system: T-47D breast
# KM12 colon = system: KM12 colon
# CAKI-1 renal = system: CAKI-1 renal
# MCF7 breast = system: MCF7 breast
# NCI-H460 lung = system: NCI-H460 lung
# HCT-15 colon = system: HCT-15 colon
# IGROV1 ovarian = system: IGROV1 ovarian
# SK-MEL-28 melanoma = system: SK-MEL-28 melanoma
# K-562 leukemia = system: K-562 leukemia
# OVCAR-3 ovarian = system: OVCAR-3 ovarian
# MDA-MB-231 breast = system: MDA-MB-231 breast
# RPMI-8226 leukemia = system: RPMI-8226 leukemia
# NCI-H23 lung = system: NCI-H23 lung
# CCRF-CEM leukemia = system: CCRF-CEM leukemia
# SNB-75 CNS = system: SNB-75 CNS
# UACC-62 melanoma = system: UACC-62 melanoma
# MALME-3M melanoma = system: MALME-3M melanoma
# HL-60(TB) leukemia = system: HL-60(TB) leukemia
# UO-31 renal = system: UO-31 renal
# SF-539 CNS = system: SF-539 CNS
# HOP-62 NSCLC = system: HOP-62 NSCLC
# MOLT-4 leukemia = system: MOLT-4 leukemia
# PC-3 prostate = system: PC-3 prostate
# SK-OV-3 ovarian = system: SK-OV-3 ovarian
# NCI/ADR-RES ovarian = system: NCI/ADR-RES ovarian
# SF-295 CNS = system: SF-295 CNS
# NCI-H522 lung = system: NCI-H522 lung
# SK-MEL-2 melanoma = system: SK-MEL-2 melanoma
# 786-0 renal = system: 786-0 renal
# M14 melanoma = system: M14 melanoma
# SF-268 CNS = system: SF-268 CNS
# ACHN renal = system: ACHN renal
# A549 NSCLC = system: A549 NSCLC
# U251 CNS = system: U251 CNS
# COLO 205 colon = system: COLO 205 colon
# RXF 393 renal = system: RXF 393 renal
# EKVX NSCLC = system: EKVX NSCLC
# SR leukemia = system: SR leukemia
# UACC-257 melanoma = system: UACC-257 melanoma
# BT-549 breast = system: BT-549 breast
# SN12C renal = system: SN12C renal
# DU-145 prostate = system: DU-145 prostate
# SW-620 colon = system: SW-620 colon
# TK-10 renal = system: TK-10 renal
# SNB-19 CNS = system: SNB-19 CNS
# HOP-92 NSCLC = system: HOP-92 NSCLC
# SK-MEL-5 melanoma = system: SK-MEL-5 melanoma
# LOX IMVI melanoma = system: LOX IMVI melanoma
# HCT-116 colon = system: HCT-116 colon
# MDA-N = system: MDA-N
# HT29 colon = system: HT29 colon
# OVCAR-5 ovarian = system: OVCAR-5 ovarian
# HCC-2998 colon = system: HCC-2998 colon
# A498 renal = system: A498 renal
# MDA-MB-435 = system: MDA-MB-435
# OVCAR-4 ovarian = system: OVCAR-4 ovarian
smiles,measurement,setting,value
O=C(O)c1nc(-c2ccccc2)ncc1-c1nnnn1-c1ccccc1,TGI,NCI-H226 lung,> 100 µM
same,TGI,OVCAR-8 ovarian,> 100 µM
same,TGI,HS 578T breast,> 100 µM
same,TGI,T-47D breast,> 100 µM
same,TGI,KM12 colon,> 100 µM
same,TGI,CAKI-1 renal,> 100 µM
same,TGI,MCF7 breast,> 100 µM
same,TGI,NCI-H460 lung,> 100 µM
same,TGI,HCT-15 colon,> 100 µM
same,TGI,IGROV1 ovarian,> 100 µM
same,TGI,SK-MEL-28 melanoma,> 100 µM
same,TGI,K-562 leukemia,> 100 µM
same,TGI,OVCAR-3 ovarian,> 100 µM
same,TGI,MDA-MB-231 breast,> 100 µM
same,TGI,RPMI-8226 leukemia,> 100 µM
same,TGI,NCI-H23 lung,> 100 µM
same,TGI,CCRF-CEM leukemia,> 100 µM
same,TGI,SNB-75 CNS,> 100 µM
same,TGI,UACC-62 melanoma,> 100 µM
same,TGI,MALME-3M melanoma,> 100 µM
same,TGI,HL-60(TB) leukemia,> 100 µM
same,TGI,UO-31 renal,> 100 µM
same,TGI,SF-539 CNS,> 100 µM
same,TGI,HOP-62 NSCLC,> 100 µM
same,TGI,MOLT-4 leukemia,> 100 µM
same,TGI,PC-3 prostate,> 100 µM
same,TGI,SK-OV-3 ovarian,> 100 µM
same,TGI,NCI/ADR-RES ovarian,> 100 µM
same,TGI,SF-295 CNS,> 100 µM
same,TGI,NCI-H522 lung,> 100 µM
same,TGI,SK-MEL-2 melanoma,> 100 µM
same,TGI,786-0 renal,> 100 µM
same,TGI,M14 melanoma,> 100 µM
same,TGI,SF-268 CNS,> 100 µM
same,TGI,ACHN renal,> 100 µM
same,TGI,A549 NSCLC,> 100 µM
same,TGI,U251 CNS,> 100 µM
same,TGI,COLO 205 colon,> 100 µM
same,TGI,RXF 393 renal,> 100 µM
same,TGI,EKVX NSCLC,> 100 µM
same,TGI,SR leukemia,> 100 µM
same,TGI,UACC-257 melanoma,> 100 µM
same,TGI,BT-549 breast,> 100 µM
same,TGI,SN12C renal,> 100 µM
same,TGI,DU-145 prostate,> 100 µM
same,TGI,SW-620 colon,> 100 µM
same,TGI,TK-10 renal,> 100 µM
same,TGI,SNB-19 CNS,> 100 µM
same,TGI,HOP-92 NSCLC,> 100 µM
same,TGI,SK-MEL-5 melanoma,> 100 µM
same,TGI,LOX IMVI melanoma,> 100 µM
same,TGI,HCT-116 colon,> 100 µM
same,TGI,MDA-N,> 100 µM
same,TGI,HT29 colon,> 100 µM
same,TGI,OVCAR-5 ovarian,> 100 µM
same,TGI,HCC-2998 colon,> 100 µM
same,TGI,A498 renal,> 100 µM
same,TGI,MDA-MB-435,> 100 µM
Oc1[nH]c2ccccc2c1N=Nc1ccccc1Cl,TGI,NCI-H226 lung,> 100 µM
same,TGI,OVCAR-8 ovarian,> 64.7 µM
same,TGI,HS 578T breast,> 100 µM
same,TGI,T-47D breast,> 100 µM
same,TGI,KM12 colon,> 100 µM
same,TGI,CAKI-1 renal,61.2 µM
same,TGI,MCF7 breast,> 100 µM
same,TGI,NCI-H460 lung,> 100 µM
same,TGI,HCT-15 colon,> 100 µM
same,TGI,IGROV1 ovarian,> 100 µM
same,TGI,SK-MEL-28 melanoma,> 100 µM
same,TGI,K-562 leukemia,> 100 µM
same,TGI,OVCAR-3 ovarian,> 93.8 µM
same,TGI,MDA-MB-231 breast,41.6 µM
same,TGI,RPMI-8226 leukemia,> 100 µM
same,TGI,NCI-H23 lung,> 100 µM
same,TGI,CCRF-CEM leukemia,> 100 µM
same,TGI,SNB-75 CNS,> 79.6 µM
same,TGI,UACC-62 melanoma,> 100 µM
same,TGI,MALME-3M melanoma,> 100 µM
same,TGI,HL-60(TB) leukemia,> 100 µM
same,TGI,UO-31 renal,> 100 µM
same,TGI,OVCAR-4 ovarian,14.6 µM
same,TGI,SF-539 CNS,> 100 µM
same,TGI,HOP-62 NSCLC,40.6 µM
same,TGI,MOLT-4 leukemia,> 100 µM
same,TGI,PC-3 prostate,> 100 µM
same,TGI,SK-OV-3 ovarian,64.5 µM
same,TGI,NCI/ADR-RES ovarian,> 100 µM
same,TGI,SF-295 CNS,> 100 µM
same,TGI,NCI-H522 lung,> 100 µM
same,TGI,SK-MEL-2 melanoma,> 100 µM
same,TGI,786-0 renal,31.1 µM
same,TGI,M14 melanoma,> 100 µM
same,TGI,SF-268 CNS,> 100 µM
same,TGI,ACHN renal,15.2 µM
same,TGI,A549 NSCLC,> 100 µM
same,TGI,U251 CNS,47.4 µM
same,TGI,COLO 205 colon,> 100 µM
same,TGI,RXF 393 renal,> 85.2 µM
same,TGI,EKVX NSCLC,> 100 µM
same,TGI,SR leukemia,34.3 µM
same,TGI,UACC-257 melanoma,> 100 µM
same,TGI,BT-549 breast,> 100 µM
same,TGI,SN12C renal,97.7 µM
same,TGI,DU-145 prostate,> 100 µM
same,TGI,SW-620 colon,> 100 µM
same,TGI,TK-10 renal,32.8 µM
same,TGI,SNB-19 CNS,> 83.6 µM
same,TGI,SK-MEL-5 melanoma,> 100 µM
same,TGI,LOX IMVI melanoma,> 100 µM
same,TGI,HCT-116 colon,> 100 µM
same,TGI,MDA-N,> 100 µM
same,TGI,HT29 colon,> 100 µM
same,TGI,OVCAR-5 ovarian,> 100 µM
same,TGI,HCC-2998 colon,> 100 µM
same,TGI,A498 renal,> 79.9 µM
same,TGI,MDA-MB-435,> 100 µM
COc1cc(C2c3cc4c(cc3OC(N3CCCC3)C2C)OCO4)cc(OC)c1O (stereo not given),TGI,NCI-H226 lung,80.9 µM
same,TGI,OVCAR-8 ovarian,> 100 µM
same,TGI,HS 578T breast,37.4 µM
same,TGI,T-47D breast,> 100 µM
same,TGI,KM12 colon,> 100 µM
same,TGI,CAKI-1 renal,> 95.1 µM
same,TGI,MCF7 breast,> 100 µM
same,TGI,NCI-H460 lung,> 100 µM
same,TGI,HCT-15 colon,> 100 µM
same,TGI,IGROV1 ovarian,> 100 µM
same,TGI,SK-MEL-28 melanoma,> 100 µM
same,TGI,K-562 leukemia,> 95.7 µM
same,TGI,OVCAR-3 ovarian,> 65.5 µM
same,TGI,MDA-MB-231 breast,> 93.3 µM
same,TGI,RPMI-8226 leukemia,> 100 µM
same,TGI,NCI-H23 lung,> 82.1 µM
same,TGI,CCRF-CEM leukemia,> 100 µM
same,TGI,SNB-75 CNS,24.5 µM
same,TGI,UACC-62 melanoma,> 61.6 µM
same,TGI,MALME-3M melanoma,> 66 µM
same,TGI,HL-60(TB) leukemia,> 92.7 µM
same,TGI,UO-31 renal,> 100 µM
same,TGI,OVCAR-4 ovarian,> 100 µM
same,TGI,SF-539 CNS,41.2 µM
same,TGI,HOP-62 NSCLC,56.7 µM
same,TGI,MOLT-4 leukemia,> 100 µM
same,TGI,PC-3 prostate,> 80.6 µM
same,TGI,SK-OV-3 ovarian,62.4 µM
same,TGI,NCI/ADR-RES ovarian,37 µM
same,TGI,SF-295 CNS,22.3 µM
same,TGI,NCI-H522 lung,19.1 µM
same,TGI,SK-MEL-2 melanoma,> 85.9 µM
same,TGI,786-0 renal,59.5 µM
same,TGI,M14 melanoma,> 51.1 µM
same,TGI,SF-268 CNS,> 100 µM
same,TGI,ACHN renal,> 100 µM
same,TGI,A549 NSCLC,> 100 µM
same,TGI,U251 CNS,42.6 µM
same,TGI,COLO 205 colon,63 µM
same,TGI,RXF 393 renal,> 42.7 µM
same,TGI,EKVX NSCLC,> 80.7 µM
same,TGI,SR leukemia,> 100 µM
same,TGI,UACC-257 melanoma,> 100 µM
same,TGI,BT-549 breast,53.2 µM
same,TGI,SN12C renal,> 83.7 µM
same,TGI,DU-145 prostate,> 90 µM
same,TGI,SW-620 colon,> 100 µM
same,TGI,TK-10 renal,58.6 µM
same,TGI,SNB-19 CNS,38.9 µM
same,TGI,HOP-92 NSCLC,> 78.5 µM
same,TGI,SK-MEL-5 melanoma,40.5 µM
same,TGI,LOX IMVI melanoma,> 100 µM
same,TGI,HCT-116 colon,> 100 µM
same,TGI,MDA-N,6.17 µM
same,TGI,HT29 colon,> 87.7 µM
same,TGI,OVCAR-5 ovarian,> 100 µM
same,TGI,HCC-2998 colon,> 94.3 µM
same,TGI,A498 renal,56.9 µM
same,TGI,MDA-MB-435,15.2 µM
